Legend:
[1] = Specific activity of purified Ep (1 U = protein needed to produce 1 μmol TDP-D-glucose min^−1); format: biochemical, Salmonella enterica LT2; settings: purified to near homogeneity
Source text: Ep is encoded by rmlA, which was previously known as rfbA (Reeves et al. Trends Microbiol. 1996, 4, 495–502). The rmlA-encoded Ep was overexpressed in E. coli to provide the desired Ep as >5% of the total soluble protein. The corresponding Ep was purified to near homogeniety with a specific activity of 110 U mg^−1, a 2-fold improvement over the previously reported values. (See Lindquist, L.; Kaiser, R.; Reeves, P. R.; Lindberg, A. A. Eur. J. Biochem., 1993, 211, 763–770.) An (NH4)2SO4 precipitate of E. coli-prfbA-C crude extracts was dialyzed against buffer B (20 mM Tris.HCl, 1 mM EDTA, pH 7.5) The dialysate was resolved by anion exchange (DE52, 3×15 cm, 50 mL buffer B wash followed by a linear gradient of 0–500 mM NaCl, 1.0 mL min^−1) and the Ep fractions combined, concentrated and further resolved by FPLC gel filtration (S-200, 2×70 cm, 50 mM Tris.HCl, 200 mM NaCl, pH 7.5). The purified Ep was stored in aliquots (−80° C.) until used.
To evaluate the synthetic utility of purified thymidylyltransferase, Ep, α-D-hexopyranosyl phosphate, Mg^+2 and NTP were incubated at about 37° C. for about 30 min and the extent of product formation determined by HPLC. The results of these assays are illustrated in FIG. 2. Confirmation of product formation was based upon HPLC co-elution with commercially available standards and/or HPLC isolation and high resolution mass spectroscopy of the product. […]

[2] = molecular target: T1, Salmonella enterica LT2 α-D-glucopyranosyl phosphate thymidylyltransferase (Ep) (Salmonella typhimurium, UniProt P26393); assay: Ep-catalyzed conversion of α-D-hexopyranosyl phosphates and NTP to NDP-sugars, HPLC (FIG. 2); format: biochemical; settings: 5 mM NTP, 10 mM sugar phosphate, 30 min, 37° C.
T1 construct: made in house; host or cells: E. coli (E. coli-prfbA-C)
Source text: FIG. 2. E^p-Catalyzed Conversion of Substrates wherein superscript indicators (a)–(h) are as follows: (a) Percent conversion=[Ap/(AP+AT)]×100, where AP is the NDP-sugar product peak integration and AT represents the NTP peak integration. HRMS for all observed products reported in the supporting information. (b) Standard retention times: TDP, […]; TTP, 7.2 mm; UDP, 4.0 mm; UTP, 6.1 mm. (c) Commercially available. (d) Coelutes with commercially available standard. […] (f) Adjusted for the 2:1 α/β-28. (g) In contrast to previously published studies (See Lindquist, L; Kaiser, R.; Reeves, P. R.; Lindberg, A. A., Eur J. Biochem, 1993, 211, 763–770). (h) No products observed.
To evaluate the synthetic utility of purified thymidylyltransferase, Ep, α-D-hexopyranosyl phosphate, Mg^+2 and NTP were incubated at about 37° C. for about 30 min and the extent of product formation determined by HPLC. The results of these assays are illustrated in FIG. 2. Confirmation of product formation was based upon HPLC co-elution with commercially available standards and/or HPLC isolation and high resolution mass spectroscopy of the product. […] A reaction containing 5 mM NTP, 10 mM sugar phosphate and 5.5 mM MgCl2 in a total volume of 50 μL 50 mM potassium phosphate buffer, pH 7.5 at 37° C. was initiated by the addition of 3.52 U Ep (1 U=the amount of protein needed to produce 1 μmol TDP-D-glucose min^−1). The reaction was incubated with slow agitation for 30 min at 37° C., quenched with MeOH (50 μL), centrifuged (5 min, 14,000×g) and the supernatant was stored at −20° C. until analysis by HPLC. Samples (20 μL) were resolved on a Sphereclone 5 u SAX column (250×4.6 mm) fitted with a guard column (30×4.6 mm) using a linear gradient (20–60 mM potassium phosphate buffer, pH 5.0, 1.5 mL min^−1, A275 nm).

[3] = molecular target: T1, Salmonella enterica LT2 α-D-glucopyranosyl phosphate thymidylyltransferase (Ep); format: biochemical; settings: secondary plot of Lineweaver-Burke plots, assays in triplicate
Source text: FIG. 10. […] The conditions for the Ep assay conditions and HPLC resolution of reactants and products were similar to those described in Jiang, J., Biggins, J. B. & Thorson, J. S. A General Enzymatic Method for the Synthesis of Natural and “Unnatural” UDP- and TDP-Nucleotide Sugars. J. Am. Chem. Soc. 122, 6803–6804 (2000).
(§1) Assays for product formation and steady state kinetics were accomplished using conditions similar to those described. in Jiang, J., Biggins, J. B. & Thorson, J. S. A General Enzymatic Method for the Synthesis of Natural and “Unnatural” UDP- and TDP-Nucleotide Sugars. J. Am. Chem. Soc. 122, 6803-6804 (2000). For the mutant pool assays, an aliquot which contained an eqimolar ratio of each mutant (60 μg) was utilized.

wild-type Ep = molecular target: T2, wild-type Ep (Salmonella typhimurium, UniProt P26393); assay: Conversion of sugar phosphates by wild-type enzyme (FIG. 11); format: biochemical, Salmonella enterica LT2
T2 construct: made in house; host or cells: E. coli (E. coli-prfbA-C)
Method: (§2) FIG. 11. Percent conversion of sugar phosphates according to the present invention by wild-type and mutant enzymes. The alterations from native substrate (Glc-1-P,1) are highlighted in red. For the mutant pool, mutants Asp41Asn, Glu62Asp, Thr201A and Trp224His were pooled, concentrated and an aliquote constituting 60 μg of each mutant (corresponding to 3.5U Ep) was utilized for the assay.
Percent conversion was determined as described in Jiang, J., Biggins, J. B. & Thorson, J. S. A General Enzymatic Method for the Synthesis of Natural and “Unnatural” UDP- and TDP-Nucleotide Sugars. J. Am. Chem. Soc. 122, 6803–6804 (2000).
as §1

[4] = system: mutant pool (Asp41Asn, Glu62Asp, Thr201A and Trp224His Ep mutants); assay: Conversion of sugar phosphates by pooled Ep mutants (FIG. 11); format: biochemical, Salmonella enterica LT2; settings: 60 μg of each mutant
Method: as §2
As a rapid means to assay the entire pool of the four newly constructed mutants, the mutants were combined and the mixture directly tested for ability to convert compounds (2), (108), (89), (102), (38), and (127). […] Those substrates turned over include […] and (127), the two sugar phosphates not accepted or poorly accepted by wild-type Ep.
as §1

Ep Trp224His mutant = molecular target: T3, Ep Trp224His mutant (Salmonella typhimurium, UniProt P26393, W224H); assay: Individual mutant analysis: Trp224His; format: biochemical, Salmonella enterica LT2; settings: deconvolution of the mutant pool
T3 construct: made in house
Source text: (§3) Thr102Ala, on the other hand, was responsible for the 2-fold increase in the conversion of (108). […] Yet, cumulatively, this small set of directed mutants was able to successfully turn over three of four targeted “unnatural” substrates. […] This Ep variant will serve as an excellent foundation for second generation double mutants.
as §1

[5] = molecular target: T1, Salmonella enterica LT2 α-D-glucopyranosyl phosphate thymidylyltransferase (Ep); assay: Ep-catalyzed conversion of aminodeoxy/acetamidodeoxy sugar phosphates with inorganic pyrophosphatase, HPLC (FIG. 4); format: biochemical; settings: for product formation with dTTP: 2.5 mM NTP, 5.0 mM sugar phosphate, 10 U inorganic pyrophosphatase, 30 min, 37° C.
Method: To evaluate the synthetic utility of thymidylyl-transferase, purified Ep, α-D-glucopyranosyl phosphate, Mg^+2, NTP and inorganic pyrophosphatase were incubated at 37° C. for 30 min and the extent of product formation determined by HPLC. The inorganic pyrophosphatase was included to drive the reaction forward. A reaction containing 2.5 mM NTP, 5.0 mM sugar phosphate, 5.5 mM MgCl2 and 10 U inorganic pyrophosphatase in a total volume of 50 μL 50 mM potassium phosphate buffer, pH 7.5 at 37° C. was initiated by the addition of 3.52 U Ep (1 U=the amount of protein needed to produce […] TDP-D-glucose min^−1). The reaction was incubated with slow agitation for 30 min at 37° C., quenched with MeOH (50 μL), centrifuged (5 min, 14,000×g) and the supernatant was stored at −20° C. until analysis by HPLC. Samples (30 μL) were resolved on a Sphereclone 5u SAX column (150×4.6 mm) fitted with a SecurityGuard ™ cartridge (Phenomenex; Torrance, Calif.) using a linear gradient (50–200 mM potassium phosphate buffer, pH 5.0, 1.5 mL min^−1, A275 nm).
The results of these assays are illustrated in FIG. 4. For each assay, confirmation of product formation was based upon high resolution mass spectroscopy of HPLC-isolated products and, also in some cases, HPLC co-elution with commercially available standards.
A reaction containing 2.5 mM NTP, 5.0 mM sugar phosphate, 5.5 mM MgCl2 and 10 U inorganic pyrophosphatase in a total volume of 50 μL 50 mM potassium phosphate buffer, pH 7.5 at 37° C. was initiated by the addition of 3.52 U Ep (1 U=the amount of protein needed to produce 1 μmol TDP-α-D-glucose min^−1) The reaction was incubated with slow agitation for 30 min at 37° C., quenched with MeOH (50 μL), centrifuged (5 min, 14,000×g) and the supernatant was stored at −20° C. until analysis by HPLC. Samples (30 μL) were resolved on a Sphereclone 5u SAX column (250×4.6 mm) fitted with a guard column (30×4.6 mm) using a linear gradient (50–200 mM potassium phosphate buffer, pH 5.0, 1.5 mL min^−1, A275 nm).

Ep Thr102Ala mutant = molecular target: T4, Ep Thr102Ala mutant (Salmonella typhimurium, UniProt P26393, T201A); assay: Individual mutant analysis: Thr102Ala; format: biochemical, Salmonella enterica LT2; settings: over wild-type Ep
T4 construct: made in house
Source text: as §3, §1

Ep: Salmonella enterica LT2 rmlA-encoded α-D-glucopyranosyl phosphate thymidylyltransferase, overexpressed in E. coli and purified
specific activity [1]: 110 U mg^−1

O=P(O)(O)O[C@H]1O[C@H](CO)[C@@H](O)[C@H](O)[C@H]1O [compound 2, α-D-glucopyranosyl phosphate]
activity as Ep substrate with TTP [2]: prefers | Km [3]: 300 ± 100 µM | Vmax [3]: 0.03 ± 0.02 mM/min

CC(=O)NC[C@H]1O[C@H](OP(=O)([O-])[O-])[C@H](O)[C@@H](O)[C@@H]1O.[Na+].[Na+] [compound 86, Disodium-(6-acetamido-6-deoxy-α-D-glucopyranosyl) Phosphate]
acceptance / conversion by wild-type Ep (wild-type Ep): not well-accepted | turnover by the mutant pool [4]: turned over | conversion by Trp224His mutant (Ep Trp224His mutant): responsible for converting | product formation with dTTP [5]: less activity | increase of product formation with UTP in comparison to dTTP ([5]; FIG. 4): 8 fold

CC(=O)N[C@H]1[C@@H](OP(=O)(O)O)O[C@H](CO)[C@@H](O)[C@@H]1O [compound 108, 2-acetamido-2-deoxy-α-D-glucopyranosyl phosphate, reference compound]
acceptance / conversion by wild-type Ep (wild-type Ep): poor conversion | product formation with dTTP [5]: well-tolerated | increase in conversion by Thr102Ala mutant (Ep Thr102Ala mutant): 2 fold

From patent US7122359B2, “Active-site engineering of nucleotidylyltransferases and general enzymatic methods for the synthesis of natural and “unnatural” UDP- and TDP-nucleotide sugars” (priority 2000, dated 2006)
